Laboratory results taken from PMC7265341, “Quantifying CDK inhibitor selectivity in live cells” (Nature Communications, 2020).
Where two headings read alike, the source gives them in different places.

Key:
[1] = molecular target: CDK12/Cyclin K (Homo sapiens, UniProt Q9NYV4); assay: NanoBRET live-cell target engagement, CDK12-NanoLuc/Cyclin K in HEK-293; type: binding; conditions: 10µM
[2] = molecular target: CDK8/Cyclin C (Homo sapiens, UniProt P49336); assay: NanoBRET live-cell target engagement, NanoLuc-CDK8/Cyclin C in HEK-293; type: binding; conditions: 10µM
Chain of CDK8/Cyclin C (P49336 whole entry): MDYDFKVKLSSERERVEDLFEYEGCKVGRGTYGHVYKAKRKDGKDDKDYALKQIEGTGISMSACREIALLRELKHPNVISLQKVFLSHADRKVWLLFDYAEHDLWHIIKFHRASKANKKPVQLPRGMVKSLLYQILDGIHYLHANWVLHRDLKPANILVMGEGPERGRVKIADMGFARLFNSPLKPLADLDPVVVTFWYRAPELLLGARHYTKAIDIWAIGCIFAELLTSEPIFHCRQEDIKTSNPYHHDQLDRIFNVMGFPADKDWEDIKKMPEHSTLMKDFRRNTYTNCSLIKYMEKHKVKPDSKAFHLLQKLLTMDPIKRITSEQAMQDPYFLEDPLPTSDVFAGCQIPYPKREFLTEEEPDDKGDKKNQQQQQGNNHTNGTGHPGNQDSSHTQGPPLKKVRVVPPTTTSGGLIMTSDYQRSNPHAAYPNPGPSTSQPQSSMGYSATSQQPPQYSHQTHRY
Chain of CDK8/Cyclin C (P24863 whole entry partner): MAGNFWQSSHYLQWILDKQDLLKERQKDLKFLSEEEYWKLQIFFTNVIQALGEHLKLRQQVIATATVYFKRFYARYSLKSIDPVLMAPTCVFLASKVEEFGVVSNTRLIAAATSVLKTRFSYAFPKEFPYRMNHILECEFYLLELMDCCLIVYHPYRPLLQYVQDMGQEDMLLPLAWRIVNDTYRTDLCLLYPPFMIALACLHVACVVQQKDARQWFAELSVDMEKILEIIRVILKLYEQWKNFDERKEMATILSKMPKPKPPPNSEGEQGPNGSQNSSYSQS

[3] = molecular target: CDK11B/Cyclin L2 (Homo sapiens, UniProt P21127); assay: NanoBRET live-cell target engagement, CDK11B-NanoLuc/Cyclin L2 in HEK-293; type: binding; conditions: 10µM
[4] = molecular target: CDK14/Cyclin Y (Homo sapiens, UniProt O94921); assay: NanoBRET live-cell target engagement, CDK14-NanoLuc/Cyclin Y in HEK-293; type: binding; conditions: 10µM
Chain of CDK14/Cyclin Y (O94921 whole entry): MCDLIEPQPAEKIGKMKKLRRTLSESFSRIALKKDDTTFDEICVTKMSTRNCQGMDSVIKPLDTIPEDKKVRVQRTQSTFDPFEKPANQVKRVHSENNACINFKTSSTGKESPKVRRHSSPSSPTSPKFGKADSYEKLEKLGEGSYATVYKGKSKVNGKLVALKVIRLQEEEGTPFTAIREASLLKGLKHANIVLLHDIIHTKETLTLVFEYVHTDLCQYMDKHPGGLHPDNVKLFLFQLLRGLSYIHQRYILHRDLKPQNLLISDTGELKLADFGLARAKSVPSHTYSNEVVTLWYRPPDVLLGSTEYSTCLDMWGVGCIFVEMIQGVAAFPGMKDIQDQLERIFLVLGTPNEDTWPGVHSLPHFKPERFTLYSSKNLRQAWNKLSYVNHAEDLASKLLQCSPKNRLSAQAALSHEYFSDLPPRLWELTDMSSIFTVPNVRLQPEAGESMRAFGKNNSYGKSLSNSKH
Chain of CDK14/Cyclin Y (Q8ND76 whole entry partner): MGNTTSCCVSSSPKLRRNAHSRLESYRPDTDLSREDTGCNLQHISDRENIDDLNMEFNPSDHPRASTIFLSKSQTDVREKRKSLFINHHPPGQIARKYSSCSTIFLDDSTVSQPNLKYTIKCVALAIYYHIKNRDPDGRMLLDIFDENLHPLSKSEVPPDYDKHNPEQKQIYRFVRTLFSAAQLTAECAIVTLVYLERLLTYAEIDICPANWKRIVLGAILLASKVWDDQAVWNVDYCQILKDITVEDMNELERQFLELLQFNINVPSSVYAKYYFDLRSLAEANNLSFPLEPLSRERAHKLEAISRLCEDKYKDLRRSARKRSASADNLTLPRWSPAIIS

[5] = molecular target: CDK5/CDK5R1 (Homo sapiens, UniProt Q00535); assay: NanoBRET live-cell target engagement, CDK5-NanoLuc/CDK5R1 in HEK-293; type: binding; conditions: 10µM
[6] = molecular target: CDK18/Cyclin Y (Homo sapiens, UniProt Q07002); assay: NanoBRET live-cell target engagement, CDK18-NanoLuc/Cyclin Y in HEK-293; type: binding; conditions: 10µM
Chain of CDK18/Cyclin Y (Q07002 whole entry): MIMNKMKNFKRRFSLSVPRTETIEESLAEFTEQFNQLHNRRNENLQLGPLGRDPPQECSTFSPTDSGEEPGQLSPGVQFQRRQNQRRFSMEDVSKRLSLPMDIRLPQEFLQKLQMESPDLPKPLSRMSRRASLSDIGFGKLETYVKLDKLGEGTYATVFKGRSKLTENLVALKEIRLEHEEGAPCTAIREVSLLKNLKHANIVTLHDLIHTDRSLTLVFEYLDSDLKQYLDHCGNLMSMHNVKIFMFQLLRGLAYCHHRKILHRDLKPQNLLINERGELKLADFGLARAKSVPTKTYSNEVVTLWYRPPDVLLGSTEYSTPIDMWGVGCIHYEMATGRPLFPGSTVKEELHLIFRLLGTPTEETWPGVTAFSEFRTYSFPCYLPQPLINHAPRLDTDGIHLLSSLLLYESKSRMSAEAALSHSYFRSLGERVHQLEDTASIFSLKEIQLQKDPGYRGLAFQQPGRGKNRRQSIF
Chain of CDK18/Cyclin Y (Q8ND76 whole entry partner): as the sequence (Q8ND76 whole entry partner) above

[7] = molecular target: CDK6/Cyclin D1 (Homo sapiens, UniProt Q00534); assay: NanoBRET live-cell target engagement, NanoLuc-CDK6/Cyclin D1 in HEK-293; type: binding; conditions: 10µM
Chain of CDK6/Cyclin D1 (Q00534 whole entry): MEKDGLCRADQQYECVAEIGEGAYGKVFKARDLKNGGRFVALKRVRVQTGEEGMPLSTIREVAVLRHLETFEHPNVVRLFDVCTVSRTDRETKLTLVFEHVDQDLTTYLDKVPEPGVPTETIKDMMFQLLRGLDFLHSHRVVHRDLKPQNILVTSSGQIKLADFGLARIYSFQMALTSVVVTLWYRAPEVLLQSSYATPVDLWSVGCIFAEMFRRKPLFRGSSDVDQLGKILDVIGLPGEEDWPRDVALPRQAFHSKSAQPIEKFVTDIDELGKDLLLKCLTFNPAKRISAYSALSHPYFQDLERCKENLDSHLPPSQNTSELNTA
Chain of CDK6/Cyclin D1 (P24385 whole entry partner): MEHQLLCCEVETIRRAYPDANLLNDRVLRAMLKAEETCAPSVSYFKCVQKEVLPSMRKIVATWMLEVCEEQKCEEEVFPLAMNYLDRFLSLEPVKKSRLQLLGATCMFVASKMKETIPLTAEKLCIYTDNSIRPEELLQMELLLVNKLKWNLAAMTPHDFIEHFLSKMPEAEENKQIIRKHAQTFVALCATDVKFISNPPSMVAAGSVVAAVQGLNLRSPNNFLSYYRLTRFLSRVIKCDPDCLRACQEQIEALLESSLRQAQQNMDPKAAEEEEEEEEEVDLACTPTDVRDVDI

[8] = molecular target: CDK1/Cyclin E1 (Homo sapiens, UniProt P06493); assay: NanoBRET live-cell target engagement, CDK1-NanoLuc/Cyclin E1 in HEK-293; type: binding; conditions: 10µM
[9] = molecular target: CDK10/Cyclin L2 (Homo sapiens, UniProt Q15131); assay: NanoBRET live-cell target engagement, CDK10-NanoLuc/Cyclin L2 in HEK-293; conditions: 10µM
Chain of CDK10/Cyclin L2 (Q15131 whole entry): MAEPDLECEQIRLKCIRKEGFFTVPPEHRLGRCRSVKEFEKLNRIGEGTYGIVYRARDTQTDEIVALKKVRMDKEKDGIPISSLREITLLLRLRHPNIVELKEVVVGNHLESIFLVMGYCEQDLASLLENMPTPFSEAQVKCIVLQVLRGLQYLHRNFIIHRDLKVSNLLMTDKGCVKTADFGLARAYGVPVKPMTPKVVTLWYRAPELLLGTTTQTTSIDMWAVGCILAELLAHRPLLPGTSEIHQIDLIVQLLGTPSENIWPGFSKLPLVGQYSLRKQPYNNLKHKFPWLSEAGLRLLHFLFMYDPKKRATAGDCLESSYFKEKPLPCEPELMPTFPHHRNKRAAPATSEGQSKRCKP

[10] = molecular target: CDK16/Cyclin Y (Homo sapiens, UniProt Q00536); assay: NanoBRET live-cell target engagement, CDK16-NanoLuc/Cyclin Y in HEK-293; type: binding; conditions: 10µM
[11] = molecular target: CDK3/Cyclin E1 (Homo sapiens, UniProt Q00526); assay: NanoBRET live-cell target engagement, CDK3-NanoLuc/Cyclin E1 in HEK-293; type: binding
[12] = molecular target: CDK15/Cyclin Y (Homo sapiens, UniProt Q96Q40); assay: NanoBRET live-cell target engagement, NanoLuc-CDK15/Cyclin Y in HEK-293; type: binding; conditions: 10µM
[13] = molecular target: CDK19/Cyclin C (Homo sapiens, UniProt Q9BWU1); assay: NanoBRET live-cell target engagement, NanoLuc-CDK19/Cyclin C in HEK-293; conditions: 10µM
[14] = molecular target: CDK20/Cyclin H (Homo sapiens, UniProt Q8IZL9); assay: NanoBRET live-cell target engagement, NanoLuc-CDK20/Cyclin H in HEK-293; type: binding; conditions: 10µM
[15] = molecular target: CDK7 (Homo sapiens, UniProt P50613); assay: NanoBRET live-cell target engagement, NanoLuc-CDK7 in HEK-293; type: binding; conditions: 10µM
[16] = molecular target: T1, CDK11A/Cyclin L2 (Homo sapiens, UniProt Q9UQ88); assay: NanoBRET live-cell target engagement, CDK11A-NanoLuc/Cyclin L2 in HEK-293; type: binding; conditions: 10µM
T1 sequence (Q9UQ88 1-783): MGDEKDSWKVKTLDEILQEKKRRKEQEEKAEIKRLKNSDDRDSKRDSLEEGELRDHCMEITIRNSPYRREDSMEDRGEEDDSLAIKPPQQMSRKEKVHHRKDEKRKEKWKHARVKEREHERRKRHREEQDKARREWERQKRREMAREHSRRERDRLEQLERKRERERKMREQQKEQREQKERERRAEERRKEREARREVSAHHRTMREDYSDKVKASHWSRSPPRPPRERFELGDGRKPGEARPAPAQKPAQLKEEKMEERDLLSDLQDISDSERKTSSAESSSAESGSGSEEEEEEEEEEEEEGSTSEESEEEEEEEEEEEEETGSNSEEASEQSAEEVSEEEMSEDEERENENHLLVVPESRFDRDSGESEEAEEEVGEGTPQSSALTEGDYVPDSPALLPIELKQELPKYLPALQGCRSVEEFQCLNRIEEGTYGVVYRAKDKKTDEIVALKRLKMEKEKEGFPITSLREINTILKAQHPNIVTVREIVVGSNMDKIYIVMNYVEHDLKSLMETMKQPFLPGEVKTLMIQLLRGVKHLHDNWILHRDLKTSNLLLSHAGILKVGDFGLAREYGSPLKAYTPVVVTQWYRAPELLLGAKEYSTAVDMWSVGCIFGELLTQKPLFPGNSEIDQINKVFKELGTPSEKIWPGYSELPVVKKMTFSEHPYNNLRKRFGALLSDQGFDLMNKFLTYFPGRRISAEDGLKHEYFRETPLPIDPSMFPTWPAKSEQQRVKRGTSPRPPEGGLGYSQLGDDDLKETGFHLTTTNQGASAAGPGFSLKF

[17] = molecular target: CDK17/Cyclin Y (Homo sapiens, UniProt Q00537); assay: NanoBRET live-cell target engagement, CDK17-NanoLuc/Cyclin Y in HEK-293; type: binding; conditions: 10µM
Chain of CDK17/Cyclin Y (Q00537 whole entry): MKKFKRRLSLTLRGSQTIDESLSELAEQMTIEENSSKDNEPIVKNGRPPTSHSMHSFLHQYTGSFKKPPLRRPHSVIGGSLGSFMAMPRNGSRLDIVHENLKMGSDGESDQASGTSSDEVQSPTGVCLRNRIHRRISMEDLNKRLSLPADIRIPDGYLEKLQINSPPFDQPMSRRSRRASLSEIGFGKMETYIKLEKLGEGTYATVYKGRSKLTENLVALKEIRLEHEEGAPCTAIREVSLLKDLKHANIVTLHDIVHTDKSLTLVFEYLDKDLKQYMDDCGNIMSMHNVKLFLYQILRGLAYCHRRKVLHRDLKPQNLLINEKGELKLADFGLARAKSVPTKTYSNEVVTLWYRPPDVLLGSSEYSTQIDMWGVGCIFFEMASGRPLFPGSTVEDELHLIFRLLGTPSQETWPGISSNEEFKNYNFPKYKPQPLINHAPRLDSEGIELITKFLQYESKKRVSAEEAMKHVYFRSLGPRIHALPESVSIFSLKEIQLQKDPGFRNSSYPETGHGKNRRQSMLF
Chain of CDK17/Cyclin Y (Q8ND76 whole entry partner): as the sequence (Q8ND76 whole entry partner) above

[18] = molecular target: CDK13/Cyclin K (Homo sapiens, UniProt Q14004); assay: NanoBRET live-cell target engagement, CDK13-NanoLuc/Cyclin K in HEK-293; type: binding; conditions: 10µM
[19] = molecular target: CDK4/Cyclin D1 (Homo sapiens, UniProt P11802); assay: NanoBRET live-cell target engagement, NanoLuc-CDK4/Cyclin D1 in HEK-293; type: binding; conditions: 10µM
Chain of CDK4/Cyclin D1 (P11802 whole entry): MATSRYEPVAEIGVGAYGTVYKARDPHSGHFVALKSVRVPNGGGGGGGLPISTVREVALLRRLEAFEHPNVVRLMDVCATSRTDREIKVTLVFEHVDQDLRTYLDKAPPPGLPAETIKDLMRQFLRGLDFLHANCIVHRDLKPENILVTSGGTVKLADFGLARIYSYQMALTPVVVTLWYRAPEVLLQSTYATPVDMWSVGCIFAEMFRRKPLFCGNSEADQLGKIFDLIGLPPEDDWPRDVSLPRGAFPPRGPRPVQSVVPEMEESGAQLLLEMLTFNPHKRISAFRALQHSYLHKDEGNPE
Chain of CDK4/Cyclin D1 (P24385 whole entry partner): as the sequence (P24385 whole entry partner) above

[20] = molecular target: CDK9/Cyclin K (Homo sapiens, UniProt P50750); assay: NanoBRET live-cell target engagement, NanoLuc-CDK9/Cyclin K in HEK-293; type: binding; conditions: 10µM
Chain of CDK9/Cyclin K (P50750 whole entry): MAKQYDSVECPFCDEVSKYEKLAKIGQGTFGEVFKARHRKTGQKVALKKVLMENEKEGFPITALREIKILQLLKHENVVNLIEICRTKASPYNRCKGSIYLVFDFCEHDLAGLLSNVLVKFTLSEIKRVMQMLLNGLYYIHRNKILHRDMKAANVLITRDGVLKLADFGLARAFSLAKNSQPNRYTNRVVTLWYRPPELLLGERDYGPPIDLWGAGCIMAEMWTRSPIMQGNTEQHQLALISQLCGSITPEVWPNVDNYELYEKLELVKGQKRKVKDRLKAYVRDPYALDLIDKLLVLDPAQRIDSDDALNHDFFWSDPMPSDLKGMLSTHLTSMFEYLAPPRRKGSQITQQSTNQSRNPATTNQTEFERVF
Chain of CDK9/Cyclin K (O75909 whole entry partner): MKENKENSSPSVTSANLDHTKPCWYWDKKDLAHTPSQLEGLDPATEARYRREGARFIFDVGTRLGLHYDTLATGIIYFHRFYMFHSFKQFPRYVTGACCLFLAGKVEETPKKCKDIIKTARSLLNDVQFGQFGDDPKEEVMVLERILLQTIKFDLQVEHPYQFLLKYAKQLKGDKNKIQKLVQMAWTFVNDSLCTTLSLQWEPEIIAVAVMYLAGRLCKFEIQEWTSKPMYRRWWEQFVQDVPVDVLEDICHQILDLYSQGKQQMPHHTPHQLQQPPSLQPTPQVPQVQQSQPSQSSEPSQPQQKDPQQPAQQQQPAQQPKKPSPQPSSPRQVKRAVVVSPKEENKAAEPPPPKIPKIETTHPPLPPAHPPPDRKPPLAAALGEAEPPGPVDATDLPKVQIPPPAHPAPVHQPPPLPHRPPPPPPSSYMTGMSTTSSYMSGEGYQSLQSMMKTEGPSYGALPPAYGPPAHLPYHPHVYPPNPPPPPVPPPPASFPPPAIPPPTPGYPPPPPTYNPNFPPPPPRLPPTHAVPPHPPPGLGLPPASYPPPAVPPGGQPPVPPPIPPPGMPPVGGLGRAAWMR

With `O=C1NC(=NCc2cccs2)S/C1=C\c1ccc2ncccc2c1` [RO-3306] the “CDK12/K Inhibition at 10µM (%)” value ([1]; average of experiments) was 10.6%, the “CDK12/K Inhibition at 10µM (%)” value ([1]; independent experiment 1) was 8.2% and the “CDK12/K Inhibition at 10µM (%)” value ([1]; independent experiment 2) was 13.0%. The “CDK8/C Inhibition at 10µM (%)” value ([2]; average of experiments) was 17.8%, the “CDK8/C Inhibition at 10µM (%)” value ([2]; independent experiment 1) was 15.7% and the “CDK8/C Inhibition at 10µM (%)” value ([2]; independent experiment 2) was 20.0%. For the same compound, the “CDK11b/L2 Inhibition at 10µM (%)” value ([3]; average of experiments) was 10.3%, the “CDK11b/L2 Inhibition at 10µM (%)” value ([3]; independent experiment 1) was 7.5% and the “CDK11b/L2 Inhibition at 10µM (%)” value ([3]; independent experiment 2) was 13.1%. For the same compound, the “CDK14/Y Inhibition at 10µM (%)” value ([4]; average of experiments) was 0.0648%, the “CDK14/Y Inhibition at 10µM (%)” value ([4]; independent experiment 1) was 3.4% and the “CDK14/Y Inhibition at 10µM (%)” value ([4]; independent experiment 2) was -3.3%. For the same compound, the “CDK5/CDK5R1 Inhibition at 10µM (%)” value ([5]; average of experiments) was -1.8%, the “CDK5/CDK5R1 Inhibition at 10µM (%)” value ([5]; independent experiment 1) was 10.9% and the “CDK5/CDK5R1 Inhibition at 10µM (%)” value ([5]; independent experiment 2) was -14.5%. For the same compound, the “CDK18/Y Inhibition at 10µM (%)” value ([6]; average of experiments) was 16.9%, the “CDK18/Y Inhibition at 10µM (%)” value ([6]; independent experiment 1) was 3.1% and the “CDK18/Y Inhibition at 10µM (%)” value ([6]; independent experiment 2) was 30.7%. For the same compound, the “CDK6/D1 Inhibition at 10µM (%)” value ([7]; average of experiments) was 15.6%, the “CDK6/D1 Inhibition at 10µM (%)” value ([7]; independent experiment 1) was 22.8% and the “CDK6/D1 Inhibition at 10µM (%)” value ([7]; independent experiment 2) was 8.5%. The “CDK1/E1 Inhibition at 10µM (%)” value ([8]; average of experiments) was 81.7%, the “CDK1/E1 Inhibition at 10µM (%)” value ([8]; independent experiment 1) was 78.1% and the “CDK1/E1 Inhibition at 10µM (%)” value ([8]; independent experiment 2) was 85.3%. The “CDK10/L2 Inhibition at 10µM (%)” value ([9]; average of experiments) was 22.6%, the “CDK10/L2 Inhibition at 10µM (%)” value ([9]; independent experiment 1) was 6.5% and the “CDK10/L2 Inhibition at 10µM (%)” value ([9]; independent experiment 2) was 38.7%. For the same compound, the “CDK16/Y Inhibition at 10µM (%)” value ([10]; independent experiment 1) was 47.1%, the “CDK16/Y Inhibition at 10µM (%)” value ([10]; independent experiment 2) was 19.7% and the “CDK3/E1 Inhibition at 10µM (%)” value ([11]; average of experiments) was 74.0%. The “CDK3/E1 Inhibition at 10µM (%)” value ([11]; independent experiment 1) was 51.6%, the “CDK3/E1 Inhibition at 10µM (%)” value ([11]; independent experiment 2) was 96.3% and the IC50 ([11]; independent experiment 1, read-out: CDK3/E1 IC50) was 140 nM. The IC50 ([11]; independent experiment 2, read-out: CDK3/E1 IC50) was 280 nM, the IC50 ([11]; independent experiment 3, read-out: CDK3/E1 IC50) was 184 nM and the IC50 ([11]; live HEK-293, 2 h, mean ± S.E.M. (n=3) or mean (n=2), read-out: IC50 for CDK/cyclin complexes, CDK3/E1) was 200 nM. For the same compound, the “CDK15/Y Inhibition at 10µM (%)” value ([12]; average of experiments) was 22.3%, the “CDK15/Y Inhibition at 10µM (%)” value ([12]; independent experiment 1) was 12.8% and the “CDK15/Y Inhibition at 10µM (%)” value ([12]; independent experiment 2) was 31.8%. For the same compound, the “CDK19/C Inhibition at 10µM (%)” value ([13]; average of experiments) was 19.5%, the “CDK19/C Inhibition at 10µM (%)” value ([13]; independent experiment 1) was 15.2% and the “CDK19/C Inhibition at 10µM (%)” value ([13]; independent experiment 2) was 23.8%. The “CDK20/H Inhibition at 10µM (%)” value ([14]; independent experiment 1) was 63.6%, the “CDK20/H Inhibition at 10µM (%)” value ([14]; independent experiment 2) was 19.4% and the “CDK7 Inhibition at 10µM (%)” value ([15]; average of experiments) was 57.8%. For the same compound, the “CDK7 Inhibition at 10µM (%)” value ([15]; independent experiment 1) was 37.4%, the “CDK7 Inhibition at 10µM (%)” value ([15]; independent experiment 2) was 78.3% and the “CDK11a/L2 Inhibition at 10µM (%)” value ([16]; average of experiments) was 25.4%. The “CDK11a/L2 Inhibition at 10µM (%)” value ([16]; independent experiment 1) was 51.4%, the “CDK11a/L2 Inhibition at 10µM (%)” value ([16]; independent experiment 2) was -0.5% and the “CDK17/Y Inhibition at 10µM (%)” value ([17]; average of experiments) was 40.0%. The “CDK17/Y Inhibition at 10µM (%)” value ([17]; independent experiment 1) was 13.8%, the “CDK17/Y Inhibition at 10µM (%)” value ([17]; independent experiment 2) was 66.1% and the “CDK13/K Inhibition at 10µM (%)” value ([18]; average of experiments) was 7.2%. For the same compound, the “CDK13/K Inhibition at 10µM (%)” value ([18]; independent experiment 1) was 3.3%, the “CDK13/K Inhibition at 10µM (%)” value ([18]; independent experiment 2) was 11.1% and the “CDK4/D1 Inhibition at 10µM (%)” value ([19]; average of experiments) was -19.5%. The “CDK4/D1 Inhibition at 10µM (%)” value ([19]; independent experiment 1) was 11.3%, the “CDK4/D1 Inhibition at 10µM (%)” value ([19]; independent experiment 2) was -50.4% and the “CDK9/K Inhibition at 10µM (%)” value ([20]; average of experiments) was 29.2%. The “CDK9/K Inhibition at 10µM (%)” value ([20]; independent experiment 1) was 10.0% and the “CDK9/K Inhibition at 10µM (%)” value ([20]; independent experiment 2) was 48.5%.
